Test results as given in patent US7132231B2, “Fluorescence polarization method for determining viral inhibitors” (priority 2001, dated 2006).

Legend:
[1] = Cytotoxicity assay (XTT / crystal violet); assay type: cell-based, African green monkey; details: monkey; for CC50 at 72 h: Vero cells, read-out: Toxicity IC50
Description: DNA polymerase long-chain synthesis assay. Compounds which elicited a decrease in the fluorescence polarization, when compared to control values, were tested for the ability to inhibit long-chain DNA synthesis via inhibition of polymerase subunit assembly [Digard et al. 1995; Bridges et al. 2001] using a poly-A template (Amersham Pharmacia) and an oligo-dT primer (Roche Molecular Biochemicals) on which Pol alone adds only a few bases. Reaction mixtures (50 mM Tris-HCl pH 7.5, 100 mM ammonium sulfate, 3 mM MgCl2, 0.1 mM EDTA, 1 mM DTT, 4% Glycerol, 40 ug ml^−1 BSA, 100 ug ml^−1 primer/template, 50 uM α-^32P-TTP (111 TBq/mmol; NEN Life Science products)), contained 200 fmol of HSV Pol ([Weisshart et al. 1994]), 400 fmol of HSV MBP-UL42 and varying amounts of compound in a final volume of 25 ul. Reactions were carried out at 37° C. for 5 minutes and stopped by adding 5 ul of alkaline loading buffer (2mM EDTA, 50mM NaOH, 2.5% glycerol, 0.025% bromocresol green) and placing them on ice and were then loaded onto an 4% alkaline agarose gel. Gels were dried over night and exposed to phosphorescence screens (BioRad). Catalytic subunit activity filter binding assay. Compounds which elicited a decrease in fluorescence polarization were tested for the ability to inhibit DNA synthesis by Pol alone using the oligo-(dT)/poly-(dA) primer-template. Reaction mixtures (50 mM TrisHCl pH 7.5, 100 mM ammonium sulfate, 3 mM MgCl2, 0.1 mM EDTA, 1 mM DTT, 4% Glycerol, 40 μg ml^31 1 BSA, 100 μg ml^−1 primer/template, 50 μM α-^32P-TTP (111 TBq/mmol)) contained 200 fmol of HSV Pol and various amounts of each compound in a final volume of 25 μl. Reactions were carried out at 37° C. for 25 minutes and stopped by placing 10 μl of the reaction mix onto DE81 filter discs. After washes in sodium hydrogen phosphate, water and ethanol, they were counted in a liquid scintillation analyzer (Packard 1600 TR). Plaque reduction assay. Confluent monolayers of Vero (African green monkey kidney) cells in 12-well dishes were infected with herpes virus strain 17 dilutions such that each well received between 25 and 50 PFU. Diluted virus was absorbed to cells in 2 ml Dulbecco's modified Eagle's medium containing 2.5% newborn calf serum, 100 U penicillin G ml^−1 and 100 ug streptomycin sulfate ml^−1 for 1 hour at 37° C. in a humidified CO2 incubator. After absorption, triplicate infected cultures were overlaid with 2% methyl cellulose in Dulbecco's modified Eagle's medium containing 5% newborn calf serum, 100 U penicillin G ml^−1, 100 ug streptomycin sulfate ml^−1 and various concentrations of the compounds which elicited a decrease in fluorescence polarization and incubated at 37° C. in a humidified CO2 incubator. Plaques were visualized by crystal violet staining at 2 to 3 days post infection and were counted on the following day [Coen et al. 1985]. Cytotoxicity assays. Vero cells (5×10^4 cells per well) were seeded into 96-well plates and treated with various concentrations of the compounds (which elicited a decrease in the fluorescence polarization) for 72 h in quadruplicates. […] In parallel, equally compound-treated cells were fixed by adding 95% ethanol, stained with crystal violet solution and washed. After addition of 100 ul acidified ethanol (EtOH:HCl=99:1) to dissolve the crystal violet, the plates were read in the plate reader (Wallac). Viral yield assay. […] After two days, plaques were stained and counted under a microscope [Pritchard et al. 1990]. […]

[2] = target: T1, Pol/UL42 interaction (Oregon Green-peptide E / MBP-UL42Δ340) (Human herpesvirus 1, UniProt P10226); assay: Fluorescence polarization (FP) assay of Pol peptide/UL42 binding; design: species or system herpes simplex virus; details: for dose dependent change in the FP signal: serial dilution, FIG. 3
T1 construct: made in house; host or cells: E. coli BL21(de3)pLysS (UL42Δ340 fusion); peptide E synthetic
Description: Peptide probe and MBP-UL42. A peptide comprising the 18 C-terminal amino acids of HSV Pol (peptide E) was synthesized, N-terminally labeled with the pentafluorofluorescein-derivative Oregon Green 514 (Molecular Probes) and HPLC-purified. A truncated version of UL42 (UL42Δ340) was expressed in BL21(de3)pLysS E.coli as maltose binding protein fusion as described [Bridges et al. 2001] and purified over an amylose column (New England Biolabs). […] After elution with 10 mM maltose in 50 mM TrisHCl, 1 mM DTT, 0.5 mM EDTA, 4% Glycerol, 200 mM NaCl and Complete™ protease inhibitors (Roche Molecular Biochemicals), the protein was concentrated when necessary and stored at −80° C. until further use. After thawing, the purification buffer was exchanged to low fluorescent grade reagents (PanVera) and maltose was removed simultaneously using 10-DG Bio-Gel columns (BioRad). Fluorescence polarization assays. 1 nM of Oregon Green-peptide E was added to 7 uM MBP-UL42Δ340 and kept on ice until the mix was distributed into black 384-well plates (LJL Biosystems) in a total volume of 20 ul per well. The buffer conditions were 50 mM TrisHCl pH 7.5, 1 mM DTT, 0.5 mM EDTA, 150 mM NaCl, 4% Glycerol and 100 ug ml^−1 bovine gamma globulin. All chemicals were low fluorescent grade (PanVera).
Using this assay, the 16,320 compound Chembridge library that had been purchased by the Harvard Institute of Chemistry and Cell Biology (ICBB) was screened. Small molecules (5 mg ml^−1 in DMSO; ChemBridge) were screened using 384-pin arrays (Genetix), and 40 nl of each compound was transferred into every well. After incubation between 5 and 45 minutes at room temperature, the FP values were determined in the Analyst plate reader (LJL Biosystems). Chemicals for further testing were obtained from ChemBridge.
DNA polymerase long-chain synthesis assay. Compounds which elicited a decrease in the fluorescence polarization, when compared to control values, were tested for the ability to inhibit long-chain DNA synthesis via inhibition of polymerase subunit assembly [Digard et al. 1995; Bridges et al. 2001] using a poly-A template (Amersham Pharmacia) and an oligo-dT primer (Roche Molecular Biochemicals) on which Pol alone adds only a few bases. Reaction mixtures (50 mM Tris-HCl pH 7.5, 100 mM ammonium sulfate, 3 mM MgCl2, 0.1 mM EDTA, 1 mM DTT, 4% Glycerol, 40 ug ml^−1 BSA, 100 ug ml^−1 primer/template, 50 uM α-^32P-TTP (111 TBq/mmol; NEN Life Science products)), contained 200 fmol of HSV Pol ([Weisshart et al. 1994]), 400 fmol of HSV MBP-UL42 and varying amounts of compound in a final volume of 25 ul. Reactions were carried out at 37° C. for 5 minutes and stopped by adding 5 ul of alkaline loading buffer (2mM EDTA, 50mM NaOH, 2.5% glycerol, 0.025% bromocresol green) and placing them on ice and were then loaded onto an 4% alkaline agarose gel. Gels were dried over night and exposed to phosphorescence screens (BioRad). Catalytic subunit activity filter binding assay. Compounds which elicited a decrease in fluorescence polarization were tested for the ability to inhibit DNA synthesis by Pol alone using the oligo-(dT)/poly-(dA) primer-template. Reaction mixtures (50 mM TrisHCl pH 7.5, 100 mM ammonium sulfate, 3 mM MgCl2, 0.1 mM EDTA, 1 mM DTT, 4% Glycerol, 40 μg ml^31 1 BSA, 100 μg ml^−1 primer/template, 50 μM α-^32P-TTP (111 TBq/mmol)) contained 200 fmol of HSV Pol and various amounts of each compound in a final volume of 25 μl. Reactions were carried out at 37° C. for 25 minutes and stopped by placing 10 μl of the reaction mix onto DE81 filter discs. After washes in sodium hydrogen phosphate, water and ethanol, they were counted in a liquid scintillation analyzer (Packard 1600 TR). Plaque reduction assay. Confluent monolayers of Vero (African green monkey kidney) cells in 12-well dishes were infected with herpes virus strain 17 dilutions such that each well received between 25 and 50 PFU. […]

[3] = test system: HSV strain 17; assay: Viral yield assay; assay type: cell-based, herpes simplex virus; details: Vero cells, MOI of 5, 24 h; read-out: ED90 viral yield reduction
Description: (§1) DNA polymerase long-chain synthesis assay. Compounds which elicited a decrease in the fluorescence polarization, when compared to control values, were tested for the ability to inhibit long-chain DNA synthesis via inhibition of polymerase subunit assembly [Digard et al. 1995; Bridges et al. 2001] using a poly-A template (Amersham Pharmacia) and an oligo-dT primer (Roche Molecular Biochemicals) on which Pol alone adds only a few bases. […] Compounds which elicited a decrease in fluorescence polarization were tested for the ability to inhibit DNA synthesis by Pol alone using the oligo-(dT)/poly-(dA) primer-template. […] After washes in sodium hydrogen phosphate, water and ethanol, they were counted in a liquid scintillation analyzer (Packard 1600 TR). […] After absorption, triplicate infected cultures were overlaid with 2% methyl cellulose in Dulbecco's modified Eagle's medium containing 5% newborn calf serum, 100 U penicillin G ml^−1, 100 ug streptomycin sulfate ml^−1 and various concentrations of the compounds which elicited a decrease in fluorescence polarization and incubated at 37° C. in a humidified CO2 incubator. Plaques were visualized by crystal violet staining at 2 to 3 days post infection and were counted on the following day [Coen et al. 1985]. […] After addition of 100 ul acidified ethanol (EtOH:HCl=99:1) to dissolve the crystal violet, the plates were read in the plate reader (Wallac). […]

[4] = target: T2, Pol/UL42 long-chain DNA synthesis (HSV Pol + HSV MBP-UL42) (Human herpesvirus 1, UniProt P10226); assay: DNA polymerase long-chain synthesis assay; assay type: biochemical, herpes simplex virus; details: for ability of UL42 to stimulate long-chain synthesis by Pol: FIG. 4, BP1, BP3, BP5 at 30 μM, BP9 at 100, 75, 50, 25 and 12 μM
T2 construct: in presence of the whole catalytic subunit; made in house; host or cells: UL42 fusion: E. coli BL21(de3)pLysS
Description: (§2) DNA polymerase long-chain synthesis assay. Compounds which elicited a decrease in the fluorescence polarization, when compared to control values, were tested for the ability to inhibit long-chain DNA synthesis via inhibition of polymerase subunit assembly [Digard et al. 1995; Bridges et al. 2001] using a poly-A template (Amersham Pharmacia) and an oligo-dT primer (Roche Molecular Biochemicals) on which Pol alone adds only a few bases. Reaction mixtures (50 mM Tris-HCl pH 7.5, 100 mM ammonium sulfate, 3 mM MgCl2, 0.1 mM EDTA, 1 mM DTT, 4% Glycerol, 40 ug ml^−1 BSA, 100 ug ml^−1 primer/template, 50 uM α-^32P-TTP (111 TBq/mmol; NEN Life Science products)), contained 200 fmol of HSV Pol ([Weisshart et al. 1994]), 400 fmol of HSV MBP-UL42 and varying amounts of compound in a final volume of 25 ul. Reactions were carried out at 37° C. for 5 minutes and stopped by adding 5 ul of alkaline loading buffer (2mM EDTA, 50mM NaOH, 2.5% glycerol, 0.025% bromocresol green) and placing them on ice and were then loaded onto an 4% alkaline agarose gel. Gels were dried over night and exposed to phosphorescence screens (BioRad). Catalytic subunit activity filter binding assay. Compounds which elicited a decrease in fluorescence polarization were tested for the ability to inhibit DNA synthesis by Pol alone using the oligo-(dT)/poly-(dA) primer-template. Reaction mixtures (50 mM TrisHCl pH 7.5, 100 mM ammonium sulfate, 3 mM MgCl2, 0.1 mM EDTA, 1 mM DTT, 4% Glycerol, 40 μg ml^31 1 BSA, 100 μg ml^−1 primer/template, 50 μM α-^32P-TTP (111 TBq/mmol)) contained 200 fmol of HSV Pol and various amounts of each compound in a final volume of 25 μl. Reactions were carried out at 37° C. for 25 minutes and stopped by placing 10 μl of the reaction mix onto DE81 filter discs. After washes in sodium hydrogen phosphate, water and ethanol, they were counted in a liquid scintillation analyzer (Packard 1600 TR). Plaque reduction assay. Confluent monolayers of Vero (African green monkey kidney) cells in 12-well dishes were infected with herpes virus strain 17 dilutions such that each well received between 25 and 50 PFU. Diluted virus was absorbed to cells in 2 ml Dulbecco's modified Eagle's medium containing 2.5% newborn calf serum, 100 U penicillin G ml^−1 and 100 ug streptomycin sulfate ml^−1 for 1 hour at 37° C. in a humidified CO2 incubator. After absorption, triplicate infected cultures were overlaid with 2% methyl cellulose in Dulbecco's modified Eagle's medium containing 5% newborn calf serum, 100 U penicillin G ml^−1, 100 ug streptomycin sulfate ml^−1 and various concentrations of the compounds which elicited a decrease in fluorescence polarization and incubated at 37° C. in a humidified CO2 incubator. Plaques were visualized by crystal violet staining at 2 to 3 days post infection and were counted on the following day [Coen et al. 1985]. Cytotoxicity assays. Vero cells (5×10^4 cells per well) were seeded into 96-well plates and treated with various concentrations of the compounds (which elicited a decrease in the fluorescence polarization) for 72 h in quadruplicates. […] In parallel, equally compound-treated cells were fixed by adding 95% ethanol, stained with crystal violet solution and washed. After addition of 100 ul acidified ethanol (EtOH:HCl=99:1) to dissolve the crystal violet, the plates were read in the plate reader (Wallac). Viral yield assay. Vero cells were seeded into 96-well (5×10^4 cells per well) tissue culture plates in 0.2 ml Dulbecco's modified Eagle's medium containing 2.5% newborn calf serum and 100 U penicillin G ml^−1. Cultures were inoculated with HSV strain 17 at an MOI of 5 PFU per cell. The virus inoculum was replaced after two hours with medium containing dilution series of test compounds and left for 24 hours. After two cycles of freeze-thawing, each drug dilution row was transferred to a freshly seeded 96-well plate and serially 1:3 diluted over the whole plate. After two days, plaques were stained and counted under a microscope [Pritchard et al. 1990]. […]

[5] = test system: herpes virus strain 17; assay: Plaque reduction assay; assay type: cell-based, herpes simplex virus; details: Vero cells, data not shown
Description: as §1

[6] = target: T3, HSV Pol (Human herpesvirus 1, UniProt P04293, N46K); assay: Catalytic subunit activity filter binding assay (Pol alone); assay type: biochemical, herpes simplex virus; details: at higher compound concentrations, FIG. 5
T3 construct: in presence of the whole catalytic subunit
Description: as §2

[7] = target: T4, HSV Pol (Human herpesvirus 1, UniProt P04293); assay: as above; assay type: biochemical, herpes simplex virus
T4 construct: in presence of the whole catalytic subunit
Description: as §2

T3 sequence (P04293 whole entry N46K): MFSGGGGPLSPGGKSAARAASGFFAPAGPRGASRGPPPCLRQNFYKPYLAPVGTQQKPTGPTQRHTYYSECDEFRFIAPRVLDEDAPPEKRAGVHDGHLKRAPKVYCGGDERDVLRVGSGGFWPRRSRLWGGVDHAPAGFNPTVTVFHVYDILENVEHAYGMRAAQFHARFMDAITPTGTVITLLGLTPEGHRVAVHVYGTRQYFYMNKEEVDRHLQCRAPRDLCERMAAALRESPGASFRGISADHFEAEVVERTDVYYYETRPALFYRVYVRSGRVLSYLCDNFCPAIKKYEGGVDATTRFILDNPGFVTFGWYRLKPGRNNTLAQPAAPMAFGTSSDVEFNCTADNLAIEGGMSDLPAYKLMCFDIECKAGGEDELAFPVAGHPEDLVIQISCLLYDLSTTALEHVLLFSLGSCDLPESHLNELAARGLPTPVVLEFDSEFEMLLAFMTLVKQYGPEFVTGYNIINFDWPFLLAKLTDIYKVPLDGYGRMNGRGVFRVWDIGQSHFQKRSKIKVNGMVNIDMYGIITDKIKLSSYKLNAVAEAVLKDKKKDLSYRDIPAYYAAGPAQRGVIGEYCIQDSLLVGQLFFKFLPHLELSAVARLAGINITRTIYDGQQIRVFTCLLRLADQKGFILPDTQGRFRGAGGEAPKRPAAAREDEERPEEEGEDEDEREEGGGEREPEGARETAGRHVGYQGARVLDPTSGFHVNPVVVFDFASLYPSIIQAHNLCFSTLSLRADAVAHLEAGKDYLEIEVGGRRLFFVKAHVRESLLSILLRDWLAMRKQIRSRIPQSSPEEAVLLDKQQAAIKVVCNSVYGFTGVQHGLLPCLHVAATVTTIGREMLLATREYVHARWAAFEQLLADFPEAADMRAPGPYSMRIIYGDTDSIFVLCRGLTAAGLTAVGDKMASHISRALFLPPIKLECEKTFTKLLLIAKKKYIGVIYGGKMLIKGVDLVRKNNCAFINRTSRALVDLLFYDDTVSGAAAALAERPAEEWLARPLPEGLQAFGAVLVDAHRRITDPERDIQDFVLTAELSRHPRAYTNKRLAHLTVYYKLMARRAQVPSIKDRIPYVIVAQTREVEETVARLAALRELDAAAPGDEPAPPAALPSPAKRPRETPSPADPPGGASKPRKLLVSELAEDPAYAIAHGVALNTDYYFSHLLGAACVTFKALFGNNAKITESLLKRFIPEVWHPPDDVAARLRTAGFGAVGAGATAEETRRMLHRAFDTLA
T4 sequence (P04293 whole entry N46K): as above
T2 sequence (P10226 1-339): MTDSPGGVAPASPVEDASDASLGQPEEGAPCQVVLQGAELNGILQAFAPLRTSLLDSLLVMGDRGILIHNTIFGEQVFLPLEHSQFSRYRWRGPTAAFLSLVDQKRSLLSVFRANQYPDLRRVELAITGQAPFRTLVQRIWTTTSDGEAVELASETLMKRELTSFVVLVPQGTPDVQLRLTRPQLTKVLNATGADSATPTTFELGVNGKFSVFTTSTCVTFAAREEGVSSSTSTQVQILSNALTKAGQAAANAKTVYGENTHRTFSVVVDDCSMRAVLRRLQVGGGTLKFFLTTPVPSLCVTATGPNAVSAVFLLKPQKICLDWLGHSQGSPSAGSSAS
T1 sequence (P10226 1-339, stated change not applied): as the sequence (P10226 1-339) above

Row | SMILES | CC50 ([1]; vero cells, Vero cell line, read-out: 50% toxic dose) [µM] | CC50 at 72 h [1] [µM] | IC50 [2] [µM] | dose dependent change in the FP signal [2] | EC90 [3] [µM] | IC50 [4] [µM] | ability of UL42 to stimulate long-chain synthesis by Pol [4] | plaque formation [5] | Pol activity in absence of UL42 [6] | IC50 [7] [µM]
1 | O=C(Nc1cccc2nsnc12)c1cc(Br)ccc1NS(=O)(=O)c1ccc(Cl)cc1 [BP5] | 50 | 50 | 15 | dose dependent change | 0.4 | 26 | greatly reduced | completely abolish | did not show a significant change | > 100
2 | CC(C)C(C(=O)O)N1C(=O)/C(=C/c2ccc(Cl)cc2Cl)SC1=S (stereo not drawn) [BP3] | – | 200 | 12 | dose dependent change | – | 30 | greatly reduced | – | significantly reduced | 25
3 | Cc1ccc(C(C)C)cc1OCC(=O)NN=Cc1cc([N+](=O)[O-])ccc1O [BP1] | – | 20 | 35 | dose dependent change | – | 25 | greatly reduced | – | did not show a significant change | > 100
